Measured values taken from publication PMC7504814, “Coumarin and Moracin Derivatives from Mulberry Leaves (Morus alba L.) with Soluble Epoxide Hydrolase Inhibitory Activity” (Molecules, 2020).
Like-named read-outs stand apart in the source and are kept apart here.

How the values were obtained:
sEH [1] = target: T1, sEH (Homo sapiens, UniProt P34913); test: sEH inhibition assay with PHOME fluorescent substrate; type: biochemical; settings: for inhibition at 100 µM: compound at 100 µM, read-out: Inhibition of Compounds on sEH, 100 µM(%)
T1 construct: purchased Cayman Chemical Company 10011669
T1 sequence (P34913 1-555): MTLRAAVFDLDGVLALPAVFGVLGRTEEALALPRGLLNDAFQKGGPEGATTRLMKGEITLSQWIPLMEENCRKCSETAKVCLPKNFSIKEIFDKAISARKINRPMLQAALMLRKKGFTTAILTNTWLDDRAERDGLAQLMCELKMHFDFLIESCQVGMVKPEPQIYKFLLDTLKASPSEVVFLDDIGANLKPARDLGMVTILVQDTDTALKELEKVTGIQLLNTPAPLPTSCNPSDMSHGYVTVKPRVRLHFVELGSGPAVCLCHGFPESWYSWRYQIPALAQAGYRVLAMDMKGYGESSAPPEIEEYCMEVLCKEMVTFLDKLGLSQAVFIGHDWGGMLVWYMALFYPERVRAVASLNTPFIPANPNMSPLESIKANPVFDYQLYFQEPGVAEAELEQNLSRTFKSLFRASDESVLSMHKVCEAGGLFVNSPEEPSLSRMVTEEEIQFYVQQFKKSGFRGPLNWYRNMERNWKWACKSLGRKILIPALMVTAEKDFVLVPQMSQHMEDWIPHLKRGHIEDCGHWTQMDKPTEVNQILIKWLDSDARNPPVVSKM

sEH [2] = target: T1, sEH; test: sEH kinetic assay (Lineweaver-Burk and Dixon plots); type: biochemical; settings: PHOME 5–80 µM; for Type of inhibition: Lineweaver-Burk plots; for Ki: calculated from Dixon plots
[3] = PHOME substrate, mean ± SD (n = 3), read-out: Inhibition of Compounds on sEH, IC50
[4] = PHOME substrate, mean ± SD (n = 3)

| Compound | IC50 (sEH [1]; [3]) | inhibition at 100 µM (sEH [1]; [4]) | Type of inhibition (sEH [2]) | Ki (sEH [2]) | IC50 (sEH [1]) |
| --- | --- | --- | --- | --- | --- |
| Oc1cc(O)cc(-c2cc3ccc(O)cc3o2)c1 [Compound 6, moracin M] | 9.9 ± 2.2 µM | 100% | competitive | 1.5 µM | – |
| COc1cc2cc(-c3cc(O)cc(O)c3)oc2cc1O [Compound 5, moracin J] | 1.2 ± 0.1 µM | 100% | mixed types of inhibitors | 2.1 µM | – |
| O=c1ccc2cc(O)c(O)cc2o1 [Compound 1, aesculetin] | – | 100% | – | 1.2 µM | 6.9 ± 0.5 µM |

Continued by falling IC50 (sEH [1]; [3]), values first:

| IC50 (sEH [1]; [3]) | inhibition at 100 µM (sEH [1]; [4]) | Type of inhibition (sEH [2]) | Ki (sEH [2]) | Compound | IC50 (sEH [1]) |
| --- | --- | --- | --- | --- | --- |
| 15.9 ± 0.4 µM | 100% | competitive | 5.4 µM | COc1cc2ccc(=O)oc2cc1OC1OC(CO)C(O)C(O)C1O (stereo not drawn) [Compound 3] | – |
| 7.7 ± 0.1 µM | 100% | mixed types of inhibitors | 5.8 µM | OCC1OC(Oc2cc(O)cc(-c3cc4ccc(O)cc4o3)c2)C(O)C(O)C1O (stereo not drawn) [Compound 7, moracin M 3’-O-β-glucopyranoside] | – |
| 1.1 ± 0.1 µM | 100% | competitive | 1 µM | COc1cc(O)cc(-c2cc3cc(O)c(OC)cc3o2)c1 [Compound 4, moracin B] | – |
| 0.2 ± 0.1 µM | 100% | competitive | 0.3 µM | COc1cc2ccc(=O)oc2cc1O [Compound 2, scopoletin] | – |
